Data reported in patent US20250136581A1, “SUBSTITUTED TRIAZOLE DERIVATIVE, PREPARATION METHOD THEREFOR, PHARMACEUTICAL COMPOSITION THEREOF, AND USE THEREOF” (SHANGHAI SIMR BIOTECHNOLOGY CO., LTD., priority 2021, published 2025).
Where two headings read alike, the source gives them in different places. One block for each compound: values may come before it.

Experiments:
[1] = biological target: human α5β3γ2 receptors (α5-GABAA receptor) (Homo sapiens (Human), UniProt P18507+P31644); experiment: 3H-flunitrazepam competition binding, human α5β3γ2 GABAA receptor; conditions: HEK293 cell membranes, 1 nM 3H-flunitrazepam; read-out: α5-GABAAR Ki
Summary of the method: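 HEK293 membranes stably expressing each human receptor subtype ([…]) competed against 1 nM 3H-flunitrazepam in Tris buffer, 1 h at room temperature; flumazenil defined the low-signal control. Eight-point 4-fold test-compound dilutions; GF/C filtration and scintillation counting gave IC50 by curve fitting, converted to Ki.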

human α1β3γ2 receptors = human α1β3γ2 receptors (Homo sapiens (Human), UniProt P14867+P18507); experiment: 3H-flunitrazepam competition binding, human α1β3γ2 GABAA receptor; conditions: HEK293 cell membranes, 1 nM 3H-flunitrazepam; read-out: Ki α1
Description: (§1) The affinity of the compound to each subtype of GABAA receptor was determined by competing for the binding of ^3H-flunitrazepam to HEK293 cells stably expressing human α1β3γ2, α2β3γ2, α3β3γ2, and α5β3γ2 receptors.
(§2) The cells were suspended in 50 mM Tris-HCl buffer (pH=7.4), homogenized 10 times on ice with a homogenizer for 20 seconds, and centrifuged at 1000 g for 10 minutes at 4° C. The supernatant was collected, and the above steps were repeated. The supernatant was centrifuged at 4° C. (33800 g; Thermo, rotor: A27-8×50) for 60 minutes, and the precipitate was resuspended in Tris buffer (50 mM Tris-HCl, 10 mM MgCl2, 0.5 mM EDTA, 10% glycerol). Protein was measured (BCA method, Pierce), and 1 mL aliquots were prepared and stored at −80° C.
(§3) The radioligand competition binding assay was performed in a 200 μL system (96-well plate) containing 100 μL of cell membrane. The concentration of ^3H-flunitrazepam was 1 nM and the concentration of the test compound was in the range of […]. Flumazenil was used as a control. 1 μL of 2 mM flumazenil (final concentration […]) was added to the low signal control well (Low control, LC), and 1 μL of DMSO was added to the high signal control well (High control, HC). The final concentration of target membrane protein was […]. All test compound sample storage solutions were 10 mM. The working concentration of the samples was to dilute all the samples to 0.2 mM with DMSO, followed by 4-fold serial gradient dilutions for a total of 8 concentration gradients. The 96-well plate was sealed with a sealing film, and then incubated on a shaker at room temperature for 1 hour. At the same time, the GF/C filter plate was soaked in soaking buffer (0.3% PEI, stored at 4° C.) for at least 0.5 hours. After the binding incubation was completed, the cells were collected onto a GF/C filter plate using a cell harvester. The plate was washed four times with washing buffer (50 mM Tris-HCl, pH 7.4, stored at 4° C.). After drying in a 50° C. oven for 1 hour, the bottom of the dried GF/C filter plate was sealed. The residual radioactivity on the filter membrane was detected using liquid scintillation counting. 50 μL of scintillation fluid was added to each well, and the plate was sealed. The readings were taken using a Microbeta2. The inhibitory activity of the test sample on the binding of ^3H-flunitrazepam to GABAA receptor membrane proteins was calculated, and the IC50 of each test sample was calculated by dose-effect curve fitting (GraphPad Prism 5 software), and the Ki of the sample was calculated from the IC50, thus evaluating the binding ability of the sample to the various subtypes of GABAA receptors.

human α2β3γ2 receptors = human α2β3γ2 receptors (Homo sapiens (Human), UniProt P18507+P47869); experiment: 3H-flunitrazepam competition binding, human α2β3γ2 GABAA receptor; conditions: HEK293 cell membranes, 1 nM 3H-flunitrazepam; read-out: Ki α2
Description: as §1, §2, §3

human α3β3γ2 receptors = human α3β3γ2 receptors (Homo sapiens (Human), UniProt P18507+P34903); experiment: 3H-flunitrazepam competition binding, human α3β3γ2 GABAA receptor; conditions: HEK293 cell membranes, 1 nM 3H-flunitrazepam; read-out: Ki α3
Description: as §1, §2, §3

[2] = biological target: α5-GABAA receptor (α5, β3, γ2 subunits) (Homo sapiens (Human), UniProt P18507+P31644); experiment: Whole cell patch clamp, inverse agonist efficacy in HEK293 cells expressing α5-GABAA receptor; format: cell-based; conditions: HEK293, drug 100 nM, GABA 0.05 μM, −60 mV; read-out: Compound inverse agonist efficacy %
Summary of the method: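 Stable HEK293 line co-expressing human α5, β3, γ2 subunits; whole-cell patch clamp at −60 mV, inward current evoked by 0.05 μM GABA, then compound at 100 nM in GABA solution applied. Effect derived from leak, pre- and post-drug GABA currents.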

[3] = Rat pharmacokinetic experiment; format: in vivo; conditions: for Kp: male, SD, brain / plasma, read-out: B/P (proportion of compounds entering the brain); for Kp / Cmax: rat, po; for Cmax: plasma
Description: The maximum plasma concentration (Cmax) in the rat pharmacokinetic experiment was used to evaluate the absorption of the compounds in rat in vivo. The experimental compound was dissolved and then orally administered by gavage (p.o.) to male SD rats. The rats were fasted overnight before drug administration, and blood was collected via venipuncture at 0.25, 0.5, 1, 2, 4, and 7 hours post dose. Approximately 100 μL blood was collected for each sample; at the same time, the whole brain was taken and homogenized with 3 times the amount of PBS for analysis. The […] method was used to determine drug concentrations in plasma and brain tissue, and the proportion of compounds entering the brain (B/P) was calculated based on the AUC of the compound. Pharmacokinetic parameters were calculated using Phoenix WinNonlin 7.0. The administration vehicle was 5% CMC-Na aqueous solution.

α5-GABAA receptor = conditions: GABA 1 μM, highest concentration of L-655,708; cited from earlier work

Structure (SMILES): Cc1nnn(-c2ccc(C(F)F)cc2)c1COc1ccc(N2CC(C(=O)N3CCOCC3)C2)nn1 [Example 104, (1-(6-((1-(4-(Difluoromethyl)phenyl)-4-methyl-1H-1,2,3-triazol-5-yl)methoxy)pyridazin-3-yl)azetidin-3-yl)(morpholino)methanone]
Ki [1]: 1.77 nM | inhibition at 0.1 µM [2]: 49.9% | Kp ([3]; 3 mg/kg): 0.0095 | Cmax ([3]; male SD rats, 3 mg/kg): 3890 ng/mL

Structure (SMILES): Cc1nnn(-c2ccc(C(F)F)cc2)c1COc1ccc(N2CCN(C3CC3)C(=O)C2)nn1 [Example 108, 1-Cyclopropyl-4-(6-((1-(4-(difluoromethyl)phenyl)-4-methyl-1H-1,2,3-triazol-5-yl)methoxy)pyridazin-3-yl)piperazin-2-one]
Ki [1]: 1.66 nM | inhibition at 0.1 µM [2]: 52.2% | Kp ([3]; 3 mg/kg): 0.0208 | Cmax ([3]; male SD rats, 3 mg/kg): 1780 ng/mL

Structure (SMILES): CCOC(=O)c1ncn2c1[C@@H]1CCCN1C(=O)c1cc(OC)ccc1-2 [L-655,708]
suppression of the current induced by GABA (α5-GABAA receptor): 15%

Structure (SMILES): Cc1nnn(-c2ccc(C(F)F)cc2)c1COc1ccc(N2CCN3CCNC(=O)[C@@H]3C2)cn1 [Example 56, (S)-8-(6-((1-(4-(Difluoromethyl)phenyl)-4-methyl-1H-1,2,3-triazol-5-yl)methoxy)pyridin-3-yl)octahydro-1H-pyrazino[1,2-a]pyrazin-1-one]
Ki [1]: 7.99 nM | Ki (human α2β3γ2 receptors): 330 nM | inhibition at 0.1 µM [2]: 53.4% | Kp ([3]; 3 mg/kg): 0.0261 | Cmax ([3]; male SD rats, 3 mg/kg): 2050 ng/mL

Structure (SMILES): Cc1nnn(-c2ccc(C(F)F)cc2)c1COc1ccc(N2CCN(C)C(=O)C2)nn1 [Example 26, 4-(6-((1-(4-(Difluoromethyl)phenyl)-4-methyl-1H-1,2,3-triazol-5-yl)methoxy)pyridazin-3-yl)-1-methylpiperazin-2-one]
Ki [1]: 1.32 nM | Ki (human α1β3γ2 receptors): 47.8 nM | Ki (human α2β3γ2 receptors): 45.4 nM | Ki (human α3β3γ2 receptors): 23.4 nM | inhibition at 0.1 µM [2]: 50.3% | Kp ([3]; 1 mg/kg): 0.0336 | Cmax ([3]; male SD rats, 1 mg/kg): 637 ng/mL

Structure (SMILES): Cc1nnn(-c2ccc(C(F)F)cc2)c1COc1ccc(N2CC(C(=O)NC(C)C)C2)nn1 [Example 155, 1-(6-((1-(4-(Difluoromethyl)phenyl)-4-methyl-1H-1,2,3-triazol-5-yl)methoxy)pyridazin-3-yl)-N-isopropylazetidine-3-carboxamide]
Ki [1]: 5.39 nM | Ki (human α1β3γ2 receptors): 389 nM | Ki (human α2β3γ2 receptors): 231 nM | Ki (human α3β3γ2 receptors): 68.7 nM | inhibition at 0.1 µM [2]: 42.3% | Kp ([3]; 3 mg/kg): 0.0166 | Cmax ([3]; male SD rats, 3 mg/kg): 3020 ng/mL

Structure (SMILES): Cc1nnn(-c2ccc(C(F)F)cc2)c1COc1ccc(N2CC(=O)N3CCC[C@H]3C2)nn1 [Example 14, (S)-2-(6-((1-(4-(difluoromethyl)phenyl)-4-methyl-1H-1,2,3-triazol-5-yl)methoxy)pyridazin-3-yl)hexahydropyrrolo[1,2-a]pyrazin-4(1H)-one]
Ki [1]: 1.24 nM | inhibition at 0.1 µM [2]: 45.7% | Kp ([3]; 3 mg/kg): 0.0135 | Cmax ([3]; male SD rats, 3 mg/kg): 2700 ng/mL

Structure (SMILES): Cc1ccc(-n2nnc(C)c2COc2ccc(N3CCN4CCNC(=O)[C@@H]4C3)nn2)cc1 [Example 129, (S)-8-(6-((4-Methyl-1-(p-tolyl)-1H-1,2,3-triazol-5-yl)methoxy)pyridazin-3-yl)octahydro-1H-pyrazino[1,2-a]pyrazin-1-one]
Ki [1]: 9.75 nM | Ki (human α1β3γ2 receptors): 911 nM | Ki (human α2β3γ2 receptors): 168 nM | Ki (human α3β3γ2 receptors): 195 nM | inhibition at 0.1 µM [2]: 56.3%

The next lines start with the values.

Ki [1]: 1.24 nM | Ki (human α1β3γ2 receptors): 36.7 nM | Ki (human α2β3γ2 receptors): 41.7 nM | Ki (human α3β3γ2 receptors): 21.8 nM | inhibition at 0.1 µM [2]: 49.3% | Kp ([3]; 1 mg/kg): 0.045 | Cmax ([3]; male SD rats, 1 mg/kg): 576 ng/mL
Structure (SMILES): Cc1nnn(-c2ccc(C(F)F)cc2)c1COc1ccc(N2CCNC(=O)C2)cn1 [Example 21, 4-(6-[(1-(4-(Difluoromethyl)phenyl)-4-methyl-1H-1,2,3-triazol-5-yl)methoxy]pyridin-3-yl)piperazin-2-one]

Ki [1]: 1.11 nM | Ki (human α1β3γ2 receptors): 73.5 nM | Ki (human α2β3γ2 receptors): 27.2 nM | Ki (human α3β3γ2 receptors): 26.3 nM | inhibition at 0.1 µM [2]: 40.5% | B/P (proportion of compounds entering the brain) ([3]; male SD rats, p.o., 3 mg/kg, based on AUC): 3.81% | Cmax ([3]; male SD rats, 3 mg/kg): 3180 ng/mL
Structure (SMILES): Cc1nnn(-c2ccc(C(F)F)cc2)c1COc1cnc(N2CCNC(=O)C2)cn1 [Example 169, 4-(5-((1-(4-(Difluoromethyl)phenyl)-4-methyl-1H-1,2,3-triazol-5-yl)methoxy)pyrazin-2-yl)piperazin-2-one]

Ki [1]: 1.21 nM | Ki (human α1β3γ2 receptors): 140 nM | Ki (human α2β3γ2 receptors): 64.2 nM | Ki (human α3β3γ2 receptors): 44.6 nM | inhibition at 0.1 µM [2]: 51.2% | Kp ([3]; 3 mg/kg): 0.0099 | Cmax ([3]; male SD rats, 3 mg/kg): 2670 ng/mL
Structure (SMILES): O=C1NCCN2CCN(c3ccc(OCc4c(Cl)nnn4-c4ccc(C(F)F)cc4)nn3)C[C@@H]12 [Example 181, (S)-8-(6-((4-Chloro-1-(4-(difluoromethyl)phenyl)-1H-1,2,3-triazol-5-yl)methoxy)pyridazin-3-yl)hexahydro-2H-pyrazino[1,2-a]pyrazin-1(6H)-one]

Ki [1]: 0.96 nM | Ki (human α1β3γ2 receptors): 58.1 nM | Ki (human α2β3γ2 receptors): 12.9 nM | Ki (human α3β3γ2 receptors): 16.8 nM | inhibition at 0.1 µM [2]: 54.5%
Structure (SMILES): Cc1nnn(-c2ccc(C(F)F)cc2)c1COc1ccc(N2CC(=O)NC(=O)C2)nn1 [Example 5, 4-(6-((1-(4-(Difluoromethyl)phenyl)-4-methyl-1H-1,2,3-triazol-5-yl)methoxy)pyridazin-3-yl)piperazine-2,6-dione]
